Assay: Pharmacokinetics: toenail and plasma ravuconazole concentrations
Assay type: in vivo, human
Experimental: A Phase II clinical pharmacology study was conducted in subjects with onychomycosis of the toenail. The study investigated the pharmacokinetics, efficacy and safety of three different dosing regimens of fosravuconazole. […] The three treatment groups were as follows: • a.

[1] = fosravuconazole 100 mg (once daily dose) group
[2] = fosravuconazole 400 mg (pulse treatment) group

## C[C@@H](c1nc(-c2ccc(C#N)cc2)cs1)[C@](O)(Cn1cncn1)c1ccc(F)cc1F [ravuconazole, 4-[2-[(2R,3R)-3-(2,4-difluorophenyl)-3-hydroxy-4-(1,2,4-triazol-1-yl)butan-2-yl]-1,3-thiazol-4-yl]benzonitrile]
[1]
  time toenail ravuconazole concentrations maintained at MIC90 or higher, longer than in 400 mg (pulse treatment) group: about 4 weeks
  toenail ravuconazole concentrations versus MIC90, arithmetic mean: exceeded MIC90 in arithmetic mean at Week 8 and maintained at MIC90 or higher until Week 28
  toenail ravuconazole concentrations versus MIC90, geometric mean: exceeded MIC90 at Week 12 after the study treatment initiation and maintained at MIC90 or higher until Week 24
Fosravuconazole 100 mg (once daily dose) group, Week 20 and onwards
  toenail ravuconazole concentrations compared with 400 mg (pulse treatment) group: fluctuated at higher levels
Fosravuconazole 200 mg (pulse treatment) group
  toenail ravuconazole concentrations, arithmetic mean and geometric mean: ≤ 60 ng/mL
[2]
  toenail ravuconazole concentrations versus MIC90, arithmetic mean: exceeded MIC90 in arithmetic mean at Week 8 after the study treatment initiation and maintained at MIC90 or higher until Week 24
  toenail ravuconazole concentrations versus MIC90, geometric mean: exceeded MIC90 at Week 12 after the study treatment initiation and maintained at MIC90 or higher until Week 24

Reference: patent publication US11324728B2, “Dosing regimens for the treatment of fungal infections” (Seren Pharmaceuticals Inc., priority 2017, dated 2022)
